Series [1] is described as follows: Permeability of the compound measured after 24 hrs by PAMPA. The series is classed as ADME. To be noted: read-out: permeability. For orientation: In PAMPA a lipid-coated filter parts donor from acceptor wells.
Series [2] deals with Sarcoplasmic/endoplasmic reticulum calcium ATPase 2 (Homo sapiens) (UniProt P16615). Briefly: Activation of SERCA2a in human HEK293T cells endoplasmic reticulum assessed as increase in […] measured for 10 mins in presence of ATP by NADH fluorescence-coupled ATPase assay. The series is classed as subcellular.
Sarcoplasmic/endoplasmic reticulum calcium ATPase 2 (Homo sapiens), sequence (P16615 whole entry): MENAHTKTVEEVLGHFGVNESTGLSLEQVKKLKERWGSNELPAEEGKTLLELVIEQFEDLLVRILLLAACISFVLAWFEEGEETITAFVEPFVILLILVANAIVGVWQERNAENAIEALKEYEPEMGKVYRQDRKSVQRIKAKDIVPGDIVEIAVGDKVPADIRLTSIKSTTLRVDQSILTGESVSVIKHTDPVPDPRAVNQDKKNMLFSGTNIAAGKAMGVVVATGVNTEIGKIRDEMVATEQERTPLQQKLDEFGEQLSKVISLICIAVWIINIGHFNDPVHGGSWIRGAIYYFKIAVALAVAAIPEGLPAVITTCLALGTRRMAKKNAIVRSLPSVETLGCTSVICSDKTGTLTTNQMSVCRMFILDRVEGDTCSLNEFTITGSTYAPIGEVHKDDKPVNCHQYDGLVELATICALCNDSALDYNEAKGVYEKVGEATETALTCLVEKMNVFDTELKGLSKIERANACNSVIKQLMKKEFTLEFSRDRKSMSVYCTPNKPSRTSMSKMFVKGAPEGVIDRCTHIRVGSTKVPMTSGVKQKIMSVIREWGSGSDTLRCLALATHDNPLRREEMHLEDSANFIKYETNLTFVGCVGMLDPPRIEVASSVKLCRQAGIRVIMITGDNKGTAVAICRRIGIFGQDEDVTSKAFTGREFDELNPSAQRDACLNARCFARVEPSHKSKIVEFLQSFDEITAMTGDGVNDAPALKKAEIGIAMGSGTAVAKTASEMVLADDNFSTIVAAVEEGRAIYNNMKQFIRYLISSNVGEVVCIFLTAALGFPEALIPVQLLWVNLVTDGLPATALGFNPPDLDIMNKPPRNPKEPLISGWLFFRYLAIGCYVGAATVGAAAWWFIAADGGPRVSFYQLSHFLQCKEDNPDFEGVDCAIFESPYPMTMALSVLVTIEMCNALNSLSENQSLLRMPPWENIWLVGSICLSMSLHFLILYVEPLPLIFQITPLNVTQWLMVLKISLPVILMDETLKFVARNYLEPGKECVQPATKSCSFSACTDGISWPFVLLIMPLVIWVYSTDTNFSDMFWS
Series [3] deals with Sarcoplasmic/endoplasmic reticulum calcium ATPase 2 (Mus musculus) (UniProt O55143). Briefly: Activation of SERCA2a in C57BL/6N mouse sarcoplasmic reticulum assessed as increase in […] measured for 10 mins in presence of ATP by NADH fluorescence-coupled ATPase assay. The series is classed as subcellular. To be noted: filed as activator.
Sarcoplasmic/endoplasmic reticulum calcium ATPase 2 (Mus musculus), sequence (O55143 whole entry): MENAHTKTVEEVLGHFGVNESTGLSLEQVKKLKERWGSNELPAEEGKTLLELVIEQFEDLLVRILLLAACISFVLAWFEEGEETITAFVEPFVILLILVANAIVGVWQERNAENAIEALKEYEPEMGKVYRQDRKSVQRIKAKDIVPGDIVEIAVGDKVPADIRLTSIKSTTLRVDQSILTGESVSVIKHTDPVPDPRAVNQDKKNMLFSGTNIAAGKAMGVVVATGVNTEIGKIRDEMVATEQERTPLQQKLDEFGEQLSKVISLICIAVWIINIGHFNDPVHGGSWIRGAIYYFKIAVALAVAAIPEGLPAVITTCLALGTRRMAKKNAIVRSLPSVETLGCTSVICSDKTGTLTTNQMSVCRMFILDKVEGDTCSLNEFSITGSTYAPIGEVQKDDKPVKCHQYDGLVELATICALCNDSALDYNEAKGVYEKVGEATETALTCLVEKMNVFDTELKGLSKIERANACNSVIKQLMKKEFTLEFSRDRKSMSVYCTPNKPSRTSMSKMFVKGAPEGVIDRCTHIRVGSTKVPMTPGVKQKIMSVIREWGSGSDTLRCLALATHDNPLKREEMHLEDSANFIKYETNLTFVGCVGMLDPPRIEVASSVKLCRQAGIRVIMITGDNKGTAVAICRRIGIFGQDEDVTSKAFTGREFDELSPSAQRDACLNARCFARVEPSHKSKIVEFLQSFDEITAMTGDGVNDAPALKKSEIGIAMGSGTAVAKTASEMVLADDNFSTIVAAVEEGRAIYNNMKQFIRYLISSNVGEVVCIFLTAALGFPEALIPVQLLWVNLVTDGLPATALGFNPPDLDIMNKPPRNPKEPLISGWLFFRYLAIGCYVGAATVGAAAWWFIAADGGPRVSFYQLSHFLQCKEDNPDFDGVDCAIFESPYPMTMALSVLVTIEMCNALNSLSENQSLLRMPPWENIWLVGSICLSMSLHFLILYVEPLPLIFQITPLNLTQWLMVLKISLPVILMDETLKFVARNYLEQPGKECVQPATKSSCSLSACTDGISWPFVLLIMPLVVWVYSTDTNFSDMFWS
Series [4] addresses T1, Ryanodine receptor 2 (Homo sapiens, UniProt Q92736). The series is described as follows: Modulator activity at wild type RyR2 (unknown origin) expressed in HEK293T co-expressed with R-CEPIA1er assessed as decrease in RyR2-mediated calcium leak in presence of calcium chloride by time-lapse fluorescence analysis. In kind it is cell-based.
Series [5] addresses Sarcoplasmic/endoplasmic reticulum calcium ATPase 2 (Mus musculus) (UniProt O55143). The series is described as follows: (§1) Activation of SERCA2a in mouse HL-1 cells assessed as increase in caffeine-induced calcium release incubated for 2 hrs by FLIPR Calcium 6 dye based caffeine assay. The series is classed as cell-based.
For series [6], the target named is Sarcoplasmic/endoplasmic reticulum calcium ATPase 2 (Mus musculus, UniProt O55143). The description is as §1. In kind it is cell-based.
Sarcoplasmic/endoplasmic reticulum calcium ATPase 2, sequence (O55143 whole entry): as above
In series [7] the target is Sarcoplasmic/endoplasmic reticulum calcium ATPase 2 (Mus musculus) (UniProt O55143). The series is described as follows: Activation of SERCA2a in mouse HL-1 cells assessed as increase in caffeine-induced calcium release at 0.1 to 50 uM incubated for 2 hrs by FLIPR Calcium 6 dye based caffeine assay. The series is classed as cell-based. To be noted: dose 0.1-50 µM.
The target is the same in series [8]. The series is described as follows: Activation of SERCA2a in mouse HL-1 cells assessed as increase in caffeine-induced calcium release at 10 uM incubated for 2 hrs by FLIPR Calcium 6 dye based caffeine assay. The series is classed as cell-based.
Series [9] addresses T1, Ryanodine receptor 2. Briefly: Modulator activity at wild type RyR2 (unknown origin) expressed in HEK293T co-expressed with R-CEPIA1er assessed as decrease in RyR2-mediated calcium leak at 1 mM in presence of calcium chloride by time-lapse fluorescence analysis. In kind it is cell-based. To be noted: filed as modulator.
The target in series [10] is T1, Ryanodine receptor 2. The series is described as follows: Modulator activity at wild type RyR2 (unknown origin) expressed in HEK293T co-expressed with R-CEPIA1er assessed as decrease in RyR2-mediated calcium leak at 25 uM in presence of calcium chloride by time-lapse fluorescence analysis. The series is classed as cell-based. To be noted: filed as modulator.
The target in series [11] is Sarcoplasmic/endoplasmic reticulum calcium ATPase 2 (Mus musculus) (UniProt O55143). Briefly: Activation of SERCA2a in mouse HL-1 cells assessed as increase in caffeine-induced calcium release at 3 uM incubated for 2 hrs by FLIPR Calcium 6 dye based caffeine assay relative to control. To be noted: filed as activator. The series is classed as cell-based.
Series [12] has the same target. The series is described as follows: Activation of SERCA2a in mouse HL-1 cells assessed as increase in caffeine-induced calcium release at 10 uM incubated for 2 hrs by FLIPR Calcium 6 dye based caffeine assay relative to control. The series is classed as cell-based. To be noted: filed as activator.
Series [13] shares this target. The series is described as follows: Activation of SERCA2a in mouse HL-1 cells assessed as increase in caffeine-induced calcium release at 25 uM incubated for 2 hrs by FLIPR Calcium 6 dye based caffeine assay. In kind it is cell-based.
The target is the same in series [14]. The series is described as follows: Activation of SERCA2a in mouse HL-1 cells assessed as increase in caffeine-induced calcium release at 50 uM incubated for 2 hrs by FLIPR Calcium 6 dye based caffeine assay. The series is classed as cell-based.

Activity calls are given as the source filed them. The rule behind the calls is not given here. A value given as a limit tells only on which side of the number the result lay.

What is called EC50 is the concentration giving half of the maximal effect.

For `COc1ccc(OCCCNCCCCC2(O)CC2)cc1`, the Papp at 24 h in series [1] amounted to 4 ×10⁻⁶ cm/s. In addition, the result in [2] was inactive. For the same compound, the result in [3] was Active.

For the compound `COc1ccc2c(c1)CN(Cc1ccc(C(=O)O)cc1)CCS2` [SURLORIAN], the Papp at 24 h in series [1] is 6.8 ×10⁻⁶ cm/s. For the same compound, the outcome in series [4] (filed as modulator), in series [2] (filed as activator) and in [3] was Active. Moreover, the Activity result in series [5] (filed as activator) is “Dose-Dependent Effect”. For the same compound, the EC50 in series [6] came to 34.3 µM.

As for `COc1ccc2c(c1)CN(C)CCS2`, in [1], the Papp at 24 h was 1.2 ×10⁻⁶ cm/s. The outcome in [4] (filed as modulator) and in series [9] was Active. Besides, the result in [5], in [7] and in series [8] was inactive.

With `COc1ccc2c(c1)CN(CCCCC1(O)CC1)CCS2`, the Papp at 24 h in series [1] was found to be 3.6 ×10⁻⁶ cm/s. Further, the result in [4] was inactive. Further, in series [6], the EC50 was above 1000 µM. The outcome in series [2] (filed as activator) and in series [3] was Active.

Turning to `COc1ccc2c(c1)CN(CCCCN(CCCCC1(O)CC1)CCCCC1(O)CC1)CCS2`, the Papp at 24 h in series [1] stood at 0.6 ×10⁻⁶ cm/s. Also, the EC50 in [4] was determined as 2.7 µM. Also, the outcome in series [10] was Active.

Regarding `COc1ccc2c(c1)CN(C(=O)C(=O)O)CCS2` [ALADORIAN], the Papp at 24 h in series [1] turned out to be 1 ×10⁻⁶ cm/s. For the same compound, the outcome in series [4] (filed as modulator) and in series [10] was Active. Besides, the outcome in series [5], in [7] and in series [8] was inactive.

As for `COc1ccc(OCCCN(CCCCC2(O)CC2)CCCCC2(O)CC2)cc1`, the Papp at 24 h in [1] stood at 4 ×10⁻⁶ cm/s. Besides, the EC50 in [4] was above 23 µM; in series [6], 1.5 µM. The result in [2] (filed as activator) and in series [3] was Active. The Activity in series [11] and in series [12] was 150% throughout. The outcome in [13] and in series [14] was inactive.

`O=C1CN(/N=C/c2ccc(-c3ccc([N+](=O)[O-])cc3)o2)C(=O)N1`: the result in series [10] was Active.

Regarding `COc1ccc(SCCCNCCCCC2(O)CC2)cc1`, in [1], the Papp at 24 h was 6.9 ×10⁻⁶ cm/s. For the same compound, the outcome in [2] (filed as activator) and in [3] was Active.

Turning to `COc1ccc2c(c1)CN(CCCCNCCCCC1(O)CC1)CCS2`, the Papp at 24 h in series [1] turned out to be 0.8 ×10⁻⁶ cm/s. Also, the EC50 in series [4] was 8.17 µM. For the same compound, in series [2], the outcome was inactive. In addition, the result in [3] was Active.

On to `COc1ccc(SCCCN(CCCCC2(O)CC2)CCCCC2(O)CC2)cc1`, for which the Papp at 24 h in series [1] amounted to 3.6 ×10⁻⁶ cm/s. The outcome in [2] (filed as activator) and in series [3] was Active.

The record behind these values is ChEMBL document CHEMBL5375959 (J Med Chem, 2023).
